Tests used:
Type in all cases: in vivo
[1] = Experiment 6 sensory evaluation of cyclic dipeptides, “boosting of last flavor (aftertaste)”
Procedure: (§1) An aqueous solution in which the concentration of each of the cyclic dipeptides shown in the table described below is set to be the same as its concentration in the heat-treated coriander prepared in 1.1. described above, as estimated from the ratio of the peak area of the cyclic dipeptides to the peak area of the internal standard (47 μg/g of L-lysine-^13C6 monohydrochloride) (hereinafter referred to as “heat-treated coriander equivalent aqueous solution”) was prepared. An aqueous solution in which the concentration of each of the cyclic dipeptides is set to be the same as its concentration in the heat-treated paprika of Example 203 prepared in 2.1 described above (hereinafter referred to as “heat-treated paprika equivalent aqueous solution”) was also prepared. Cyclic dipeptides prepared by the applicant were used in this experiment. As a cyclic dipeptide comprising Leu/Ile, a mixture comprising equal parts of cyclic dipeptide comprising Leu and cyclic dipeptide comprising Ile was used.
(§2) Common and reduced-sodium curry rouxes were prepared according to the procedures described in (1) and (2) of 1.3. described above.
(§3) Two dispersions of 44 g of the aforesaid reduced-sodium curry roux dispersed in 300 g of hot water were prepared. To one of them was added the heat-treated coriander equivalent solution or heat-treated paprika equivalent aqueous solution of the individual cyclic dipeptides shown in the table described below so as to be in the final concentration of 0.5% (w/w) or 1.0% (w/w), respectively.
(§4) Forty-four grams of the aforesaid common curry roux was dispersed in 300 g of hot water.
(§5) The dispersion of reduced-sodium curry roux dispersed in hot water and the dispersion of common curry roux dispersed in hot water were used as comparative controls, and the strength of the flavor was evaluated by three evaluators on the basis of the following evaluation criteria from the viewpoint of “top sharp saltiness”, “middle fullness (enhanced thickness) and “boosting of last flavor (aftertaste).”
(§6) The average of the evaluated scores was defined as “F” when it was 1.0 or lower, “C” when it was 1.1 or higher and 1.9 or lower, “B” when it was 2.0 or higher and 2.5 or lower, “A” when it was 2.6 or higher and 2.9 or lower, and “AA” when it was 3.0 or higher.
(§7) In the table described below, “ID” refers to the compound ID described above. The items of “coriander 0.5%” and “coriander 1.0%” refer to the addition of the aforesaid heat-treated coriander equivalent aqueous solution of cyclic dipeptide so that the final concentrations may be 0.5% (w/w) and 1.0% (w/w), respectively. The items of “paprika 0.5%” and “paprika 1.0%” refer to the addition of the aforesaid heat-treated paprika equivalent aqueous solution of cyclic dipeptide so that the final concentration may be 0.5% (w/w) and 1.0% (w/w), respectively.

[2] = Experiment 6 sensory evaluation of cyclic dipeptides, “middle fullness (enhanced thickness)”
Procedure: as §1, §2, §3, §4, §5, §6, §7

[3] = Experiment 6 sensory evaluation of cyclic dipeptides, “top sharp saltiness”
Procedure: as §1, §2, §3, §4, §5, §6, §7

[4] = Additive amount coriander 0.5%, reduced-sodium curry roux
[5] = heat-treated coriander equivalent aqueous solution of cyclic dipeptide, final 1.0% (w/w) in reduced-sodium curry roux dispersion
[6] = heat-treated coriander equivalent aqueous solution of cyclic dipeptide, final 1.0% (w/w) in reduced-sodium curry roux dispersion, 3 evaluators
[7] = Additive amount coriander 0.5% (heat-treated coriander equivalent aqueous solution, final 0.5% (w/w)), reduced-sodium curry roux
[8] = Additive amount paprika 0.5%, reduced-sodium curry roux
[9] = heat-treated paprika equivalent aqueous solution of cyclic dipeptide, final 1.0% (w/w) in reduced-sodium curry roux dispersion
[10] = heat-treated paprika equivalent aqueous solution of cyclic dipeptide, final 1.0% (w/w) in reduced-sodium curry roux dispersion, 3 evaluators
[11] = Additive amount paprika 0.5% (heat-treated paprika equivalent aqueous solution, final 0.5% (w/w)), reduced-sodium curry roux

Substance | Bosting of last flavor Average [1, 4] | Bosting of last flavor Evaluation [1, 4] | Bosting of last flavor Evaluation [1, 5] | Bosting of last flavor Average [1, 6] | Middle fullness Average [2, 4] | Middle fullness Evaluation [2, 4] | Middle fullness Evaluation [2, 5] | Middle fullness Average [2, 6] | Top sharp saltiness Average [3, 7] | Top sharp saltiness Evaluation [3, 4] | Top sharp saltiness Evaluation [3, 5] | Top sharp saltiness Average [3, 6] | Bosting of last flavor Average [1, 8] | Bosting of last flavor Evaluation [1, 8] | Bosting of last flavor Evaluation [1, 9] | Bosting of last flavor Average [1, 10] | Middle fullness Average [2, 8] | Middle fullness Evaluation [2, 8] | Middle fullness Evaluation [2, 9] | Middle fullness Average [2, 10] | other results
cyclic (Ala-Arg) [Coriander ID 11] | 1.8 points | B (“B” when it was 2.0 or higher and 2.5 or lower) | A (“A” when it was 2.6 or higher and 2.9 or lower) | 2.7 points | 1.8 points | C (“C” when it was 1.1 or higher and 1.9 or lower) | B (“B” when it was 2.0 or higher and 2.5 or lower) | 2.7 points | 2.0 points | B (“B” when it was 2.0 or higher and 2.5 or lower) | B (“B” when it was 2.0 or higher and 2.5 or lower) | 2.2 points | – | – | – | – | – | – | – | – | –
cyclic (Ala-Asn) [Coriander ID 56] | 2.3 points | B (“B” when it was 2.0 or higher and 2.5 or lower) | B (“B” when it was 2.0 or higher and 2.5 or lower) | 2.5 points | 2.3 points | B (“B” when it was 2.0 or higher and 2.5 or lower) | A (“A” when it was 2.6 or higher and 2.9 or lower) | 2.7 points | 2.3 points | B (“B” when it was 2.0 or higher and 2.5 or lower) | B (“B” when it was 2.0 or higher and 2.5 or lower) | 2.0 points | – | – | – | – | – | – | – | – | –
cyclic (Ala-Asp) [Coriander ID 58] | – | – | – | – | – | – | – | – | – | – | – | – | 3.2 points | AA (“AA” when it was 3.0 or higher) | AA (“AA” when it was 3.0 or higher) | 3.2 points | 3.3 points | AA (“AA” when it was 3.0 or higher) | AA (“AA” when it was 3.0 or higher) | 3.0 points | Top sharp saltiness Average [3, 11]: 3.0 points; Top sharp saltiness Evaluation [3, 8]: AA (“AA” when it was 3.0 or higher); Top sharp saltiness Evaluation [3, 9]: AA (“AA” when it was 3.0 or higher); Top sharp saltiness Average [3, 10]: 3.0 points
cyclic (Ala-His) [Coriander ID 10] | 3.3 points | AA (“AA” when it was 3.0 or higher) | AA (“AA” when it was 3.0 or higher) | 3.7 points | 3.2 points | AA (“AA” when it was 3.0 or higher) | AA (“AA” when it was 3.0 or higher) | 3.3 points | 2.7 points | A (“A” when it was 2.6 or higher and 2.9 or lower) | B (“B” when it was 2.0 or higher and 2.5 or lower) | 2.3 points | – | – | – | – | – | – | – | – | –
cyclic (Ala-Tyr) [Coriander ID 26] | 2.2 points | B (“B” when it was 2.0 or higher and 2.5 or lower) | B (“B” when it was 2.0 or higher and 2.5 or lower) | 2.3 points | 2.3 points | B (“B” when it was 2.0 or higher and 2.5 or lower) | B (“B” when it was 2.0 or higher and 2.5 or lower) | 2.2 points | 2.2 points | B (“B” when it was 2.0 or higher and 2.5 or lower) | C (“C” when it was 1.1 or higher and 1.9 or lower) | 1.3 points | – | – | – | – | – | – | – | – | –
cyclic (Arg-Leu/Ile) [Coriander ID 22] | 2.7 points | A (“A” when it was 2.6 or higher and 2.9 or lower) | A (“A” when it was 2.6 or higher and 2.9 or lower) | 2.8 points | 2.6 points | A (“A” when it was 2.6 or higher and 2.9 or lower) | B (“B” when it was 2.0 or higher and 2.5 or lower) | 2.5 points | 2.6 points | A (“A” when it was 2.6 or higher and 2.9 or lower) | B (“B” when it was 2.0 or higher and 2.5 or lower) | 2.0 points | – | – | – | – | – | – | – | – | –
cyclic (Glu-Arg) [Coriander ID 8] | – | – | – | – | – | – | – | – | – | – | – | – | 2.7 points | A (“A” when it was 2.6 or higher and 2.9 or lower) | B (“B” when it was 2.0 or higher and 2.5 or lower) | 2.3 points | 2.2 points | B (“B” when it was 2.0 or higher and 2.5 or lower) | B (“B” when it was 2.0 or higher and 2.5 or lower) | 2.5 points | Top sharp saltiness Average [3, 11]: 1.8 points; Top sharp saltiness Evaluation [3, 8]: C (“C” when it was 1.1 or higher and 1.9 or lower); Top sharp saltiness Evaluation [3, 9]: B (“B” when it was 2.0 or higher and 2.5 or lower); Top sharp saltiness Average [3, 10]: 2.2 points
cyclic (Glu-Asp) [Coriander ID 12] | – | – | – | – | – | – | – | – | – | – | – | – | 2.3 points | B (“B” when it was 2.0 or higher and 2.5 or lower) | B (“B” when it was 2.0 or higher and 2.5 or lower) | 2.0 points | 2.7 points | A (“A” when it was 2.6 or higher and 2.9 or lower) | B (“B” when it was 2.0 or higher and 2.5 or lower) | 2.0 points | Top sharp saltiness Average [3, 11]: 1.8 points; Top sharp saltiness Evaluation [3, 8]: C (“C” when it was 1.1 or higher and 1.9 or lower); Top sharp saltiness Evaluation [3, 9]: C (“C” when it was 1.1 or higher and 1.9 or lower); Top sharp saltiness Average [3, 10]: 1.5 points
cyclic (Glu-Glu) | – | – | – | – | – | – | – | – | – | – | – | – | 2.5 points | B (“B” when it was 2.0 or higher and 2.5 or lower) | B (“B” when it was 2.0 or higher and 2.5 or lower) | 2.2 points | 2.3 points | B (“B” when it was 2.0 or higher and 2.5 or lower) | B (“B” when it was 2.0 or higher and 2.5 or lower) | 2.5 points | Top sharp saltiness Average [3, 11]: 2.0 points; Top sharp saltiness Evaluation [3, 8]: B (“B” when it was 2.0 or higher and 2.5 or lower); Top sharp saltiness Evaluation [3, 9]: B (“B” when it was 2.0 or higher and 2.5 or lower); Top sharp saltiness Average [3, 10]: 2.2 points
cyclic (Glu-Gly) [Coriander ID 9] | 2.8 points | A (“A” when it was 2.6 or higher and 2.9 or lower) | B (“B” when it was 2.0 or higher and 2.5 or lower) | 2.5 points | 2.8 points | A (“A” when it was 2.6 or higher and 2.9 or lower) | AA (“AA” when it was 3.0 or higher) | 3.0 points | 2.2 points | B (“B” when it was 2.0 or higher and 2.5 or lower) | B (“B” when it was 2.0 or higher and 2.5 or lower) | 2.0 points | – | – | – | – | – | – | – | – | –
